PubChem BioAssay (NCI)
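Grown in 96-well plates, cells were treated for 48 hours with each compound at five concentrations. Insufficient inhibition: endpoint recorded as highest concentration tested. At the GI50, growth is halved. TGI: total growth inhibition.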

What was measured:
Assay in all cases: growth of human tumour cells (NCI), 48 h
MDA-MB-231 breast = tested on: MDA-MB-231 breast
OVCAR-8 ovarian = tested on: OVCAR-8 ovarian
COLO 205 colon = tested on: COLO 205 colon
UO-31 renal = tested on: UO-31 renal
786-0 renal = tested on: 786-0 renal
NCI/ADR-RES ovarian = tested on: NCI/ADR-RES ovarian
RXF 393 renal = tested on: RXF 393 renal
OVCAR-4 ovarian = tested on: OVCAR-4 ovarian
NCI-H522 lung = tested on: NCI-H522 lung
UACC-257 melanoma = tested on: UACC-257 melanoma

Structure (SMILES)	GI50 (MDA-MB-231 breast) [µM]	TGI (MDA-MB-231 breast) [µM]	GI50 (OVCAR-8 ovarian) [µM]	TGI (OVCAR-8 ovarian) [µM]	GI50 (COLO 205 colon) [µM]	TGI (COLO 205 colon) [µM]	GI50 (UO-31 renal) [µM]	TGI (UO-31 renal) [µM]	GI50 (786-0 renal) [µM]	TGI (786-0 renal) [µM]	GI50 (NCI/ADR-RES ovarian) [µM]	TGI (NCI/ADR-RES ovarian) [µM]	GI50 (RXF 393 renal) [µM]	TGI (RXF 393 renal) [µM]	GI50 (OVCAR-4 ovarian) [µM]	TGI (OVCAR-4 ovarian) [µM]	GI50 (NCI-H522 lung) [µM]	TGI (NCI-H522 lung) [µM]	TGI (UACC-257 melanoma) [µM]	GI50 (UACC-257 melanoma) [µM]
COc1cc(-c2cc3ncccc3c3[nH]c(=O)c4cccnc4c23)cc(OC)c1OC	1.54	> 100	2.51	> 100	0.538	> 100	1.09	> 100	0.722	> 100	0.482	> 100	0.818	26.2	8.87	> 100	0.328	82.5	–	–
CCC(=O)C(C(=O)CC)c1c(OC(=O)c2ccccc2)ccc(O)c1C(=O)OC	–	–	–	> 100	–	> 100	–	> 100	–	> 100	–	–	–	> 100	–	> 100	–	> 100	> 100	–
C/C(CC(=O)Nc1ccc(NC(=O)C/C(C)=N\NC(N)=O)cc1)=N/NC(N)=O	–	–	–	> 100	–	> 79.7	–	> 100	–	> 100	–	–	–	> 100	–	> 100	–	> 100	> 100	–
Cc1ccc(O)c(NC2=C(Cl)C(=O)N(Cc3ccccc3)C2=O)c1	12.6	32.3	18.3	39.3	28.4	> 100	16	41	29.6	86.1	38.1	> 100	15	39.3	31.7	> 100	13.1	29.9	–	–
CC1(C)C(=O)C(=Cc2ccco2)C1=O	–	–	–	> 100	–	> 100	–	> 100	–	> 100	–	–	–	–	–	> 100	–	> 100	> 100	–
CCC(C)(O)c1cn(-c2ccc(S(=O)(=O)O)cc2)nn1 (stereo not drawn)	–	–	–	> 100	–	> 100	–	> 100	–	> 100	–	–	–	> 100	–	> 100	–	> 100	> 100	–
COc1cc(NC(C)CCCNC(C)C)c2ncccc2c1OC (stereo not drawn)	> 100	> 100	> 100	> 100	14	39.1	5.29	> 100	> 100	> 100	> 100	> 100	> 100	> 100	4.2	53.3	–	–	> 100	> 100
O=C1Nc2ccccc2/C1=C/c1cn(CC(O)Cn2cc(/C=C3\C(=O)Nc4ccccc43)c3ccccc32)c2ccccc12 (stereo not drawn)	1.27	2.71	–	–	–	–	1.29	2.94	1.67	3.21	12.1	57.1	2.04	3.75	–	–	–	–	4.44	2.35
c1cc[c]([Sn]([O]c2cccc3cccnc23)([O]c2cccc3cccnc23)[c]2ccccc2)cc1	–	–	0.294	0.859	1.07	2.28	–	–	0.57	4.74	–	–	–	–	0.214	0.406	–	–	–	–
O=c1c2cccnc2ncn1CCCN1CCCC1	–	–	–	> 100	–	> 100	–	> 100	–	> 100	–	–	–	> 100	–	> 100	–	> 100	–	–
COc1ccc2c(c1)[n+](=O)c(C(=O)CC(=O)C(=O)Nc1cccc(C)c1C)c(C)n2[O-]	–	–	–	> 100	–	–	–	> 100	–	> 100	–	–	–	> 100	–	> 100	–	> 100	> 100	–
Nc1ccccc1C(=O)NC(=O)Nc1ccc(Oc2ncc(Br)cn2)c(Cl)c1	–	2.76	–	4.77	–	0.421	–	9.03	–	3.58	–	0.391	–	0.458	–	10.2	–	–	25.3	–
COc1cc2c3c(c1OC)C(=O)C=C3N(S(=O)(=O)c1ccc(C)cc1)CC2	–	–	–	> 100	–	> 100	–	> 100	–	> 100	–	–	–	–	–	> 100	–	38.6	> 100	–
O=C(NC(=O)c1cn(CCN2CCN(C(=O)NCCCCCCNC(=O)N3CCN(CCn4cc(C(=O)NC(=O)OCc5ccccc5)c(=O)[nH]c4=O)CC3)CC2)c(=O)[nH]c1=O)OCc1ccccc1	–	–	–	> 100	–	> 100	–	> 100	–	> 100	–	–	–	> 100	–	> 100	–	–	> 100	–
CC12OC(C(=O)C13CCC3)C1C(=O)c3ccc4c(ccc5ccccc54)c3C(=O)C12 (stereo not drawn)	–	–	6.49	> 100	11.2	33.1	25.7	> 100	3.65	8.82	4.45	22.8	13.3	30.3	–	–	13	35.1	39.3	10.7
COC(=O)/C(=C/c1ccc(OC)cc1)C(C(=O)O)=C1CCCCC1	–	–	–	> 100	–	> 100	–	> 100	–	> 100	–	–	–	> 100	–	> 100	–	> 100	> 100	–
CCN(CC)c1ccc2nc3ccc(N=Nc4ccc(O)cc4)cc3[n+](-c3ccccc3)c2c1	–	–	7.42	> 100	1.26	3.1	–	–	26.6	> 100	> 100	> 100	10.4	24.8	1.39	2.77	–	–	9.78	3.11
C=C(CO)CC(/C=C(\C)CC/C=C(\C)CCl)OC(C)=O (stereo not drawn)	–	–	–	> 100	–	> 100	–	> 100	–	> 100	–	–	–	> 100	–	> 100	–	> 100	–	–
C1CC2=C(C1)C1=S(S2)SC2=C1CCC2	–	–	–	> 100	–	> 100	–	> 100	–	> 100	–	–	–	> 100	–	> 100	–	> 100	> 100	–
CCN(CC)c1nc(NC2CCCCC2)c2nc(N(CC)CC)nc(NC3CCCCC3)c2n1	–	> 100	–	> 100	–	–	–	–	–	> 100	–	> 100	–	99.8	–	–	–	–	–	–
O=c1[nH]c(=O)n(C2CC(O)C(CO)O2)cc1COCC(F)(F)F (stereo not drawn)	–	–	–	> 100	–	> 100	–	> 100	–	> 100	–	–	–	> 100	–	> 100	–	> 100	> 100	–
